The values below come from US20250129027A1 (APOGEE PHARMACEUTICALS, INC., priority 2023, published 2025).

Converted amounts (≈) assume the structure as drawn. Where two headings read alike, the source gives them in different places.

One data set concerns the target human recombinant MAGL (Homo sapiens (Human), UniProt Q99685). Description: In vitro inhibition of MAGL activity (inhibitor screening kit, 4-nitrophenylacetate). It counts as biochemical. The conditions noted are these: human recombinant MAGL. The procedure, abridged: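 Colorimetric kit assay: recombinant human MAGL hydrolyses 4-nitrophenylacetate to 4-nitrophenol, read by absorbance at 405-412 nm. Inhibition given as percentage of signal in treated versus untreated MAGL control.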

Data set [1] in a line: Aqueous solubility in PBS buffer pH 7.4 (LC-MS). The conditions noted are these: phosphate buffer, kinetic from dmso stock, PBS buffer pH 7.4, room temperature, spiked at 100 μM from DMSO stock. It is filed as physicochemical. On the procedure: Compounds as described herewith were analyzed for their aqueous solubility.
The aqueous solubility of compounds were determined using standard protocols. To illustrate the experimental protocol, the analysis of a representative compound is described. Exemplary compound of Example 158 (MW: 380.4 g/mol) was analyzed in a buffer system at specified pH (phosphate buffer, pH 7.4). This was accomplished by spiking a DMSO stock solution of the test compound at a final concentration of 100 μM in buffer.
Solubility calculation: This is a quantitative assay. The mixture at the end of the assay is filtered by 0.22 micron syringe filter and after 5× dilution in diluent, it was analyzed versus a calibration curve using LC-MS.

Data set [2] can be described thus: Plasma stability (LC-MS/MS, % parent compound remaining, half-life). It counts as in vitro ADME. Conditions: human plasma; for half-life at 1 μM: 37° C., 0-240 mins, read-out: Human Plasma Stability (t1/2, min); for plasma stability and/or aqueous solubility compared to reference compound URB597: see Table 5. As for the experimental part: Exemplary compounds described herewith were assayed for plasma stability (various species).
Plasma was removed from deep freezer and allowed to thaw at room temperature (or at 37° C. if needed). Plasma was then centrifuged at 4,000 rpm at RT for 10 min and supernatant was collected and used for the assay: • Drug test tubes: 297 μL plasma/drug test tube, duplicate/drug. • Blank test tubes: 297 μL plasma/Blank test tube, duplicate, too. (Optional, if assay system is stable and consistent) • T0 plasma tube: […] X No. of total sample tubes+50 μL extra for T0 extraction. • (Note: equivalent proportion of solvent mixture as added in drug test tubes will be added before T0 extraction!)
Take out the pre-warmed plasma tubes from the 37° C. incubator. Add 3 μL of 100 μM stock solution (or, equivalent proportion of the solvent mixture to T0 plasma tube for T0 extraction) to each corresponding sample tubes in order, vortex gently (3×) to mix. Finish the sample tubes orderly and quickly, then transfer them to the Thermomixer (program & 37° C. ready), and start the Thermomixer. Record starting time on paper & start the timer for 15 min for the 1st sampling time point.
Now add the equivalent amount of solvent mixture to the T0 plasma tube, mix, and transfer 50 μL plasma to each of the T0 extracting tubes, vortex 20s and placed on ice. Vortex 10s again before centrifuging the samples at 14,000 rpm for 5 min at 4° C.
Repeat the above procedures at each time point (15, 30, 60, 120, 240 min) by transferring 50 μL plasma samples from the testing tubes to the corresponding extracting tubes, in the same order and time scheme as in the addition of the drug to the plasma samples at the beginning of the study.
• Kel=Slope of LN % PCR vs time
Half life (t½)=0.693/Kel (1)

For data set [3] the following is noted: oral dosing, dose of 250 mg/kg; cited from earlier work.
For a further data set, the target named is human recombinant FAAH (Homo sapiens (Human), UniProt O00519). Description: In vitro inhibition of FAAH activity (fluorescent inhibitor screening kit, AMC arachidonoyl amide). It counts as biochemical. The procedure, abridged: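 Fluorogenic kit assay: AMC arachidonoyl amide is cleaved by human recombinant FAAH, read at 340-360/450-465 nm. Percent inhibition versus non-treated control; IC50 values derived from multiple compound concentrations where tested.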

Data set [4] in a line: Pharmacokinetic study in rats, IV and oral gavage, with brain penetration. It counts as in vivo, rat. Conditions: for Cmax exposure relative to URB597: 10 mg/kg PO vs URB597 at 250 mg/kg; for clearance: read-out: CLp; for Vd: read-out: Vdss; for improvement in oral exposure maximums compared to URB597: dose-adjusted (25× lower dose, 10× Cmax); for Kp at 0.5 h: read-out: Brain/Plasma ratio (0.5 h); for Kp at 1 h: read-out: Brain/Plasma ratio (1 h). As for the experimental part: In pharmacokinetic (PK) studies, animals were administered compounds of the present disclosure and PK parameters were measured. Rats (male, Sprague Dawley) were administered compound of Example 158 at a dose of 1.0 mg/kg intravenously (IV) or 10 mg/kg via oral gavage (PO). Blood samples were taken at t=0.083, 0.25. 0.5, 1, 2, 4, 6, 8 and 24 h post-dose and the plasma was analyzed for concentration of test article (compound of Example 158). Using standard analytical methodology (HPLC analysis), the following parameters were obtained:
Rats were administered compound of Example 172 at a dose of 1.0 mg/kg intravenously (IV) or 10 mg/kg via oral gavage (PO). Using standard analytical methodology (HPLC analysis), the following parameters were obtained: […]

The mark [5] stands for this setting: FAAH, values as listed in Table 5, read-out: IC50.
[6] abbreviates: human recombinant FAAH, read-out: Inhibition on FAAH activity (IC50).
[7] abbreviates: Sprague Dawley, plasma, rat (SD, male), IV 1.0 mg/kg, read-out: AUC0-Y (ng h/mL), IV.
Where [8] appears, read: Sprague Dawley, plasma, rat (SD, male), IV 1.0 mg/kg.
[9] abbreviates: Sprague Dawley, plasma, rat (SD, male), IV 1.0 mg/kg, read-out: t1/2 (h), IV (converted).
Setting [10] is: male, Sprague Dawley, brain, intravenous, 1 mg/kg, rat.
The mark [11] stands for this setting: male, Sprague Dawley, brain, rat.
[12] abbreviates: male, Sprague Dawley, plasma, rat, PO 10.0 mg/kg.
The mark [13] stands for this setting: male, Sprague Dawley, plasma, rat, PO 10.0 mg/kg, read-out: AUC0-Y (ng h/mL), PO.
Where [14] appears, read: male, Sprague Dawley, plasma, rat, PO 10.0 mg/kg, read-out: Cmax.
Setting [15] is: male, Sprague Dawley, plasma, rat, PO 10.0 mg/kg, read-out: Cmax (ng/mL).
Setting [16] is: male, Sprague Dawley, plasma, rat, PO 10.0 mg/kg, read-out: t1/2 (h), PO (converted).
Setting [17] is: rat, PO 10.0 mg/kg vs IV 1.0 mg/kg.

Sequence of human recombinant MAGL (Q99685 whole entry): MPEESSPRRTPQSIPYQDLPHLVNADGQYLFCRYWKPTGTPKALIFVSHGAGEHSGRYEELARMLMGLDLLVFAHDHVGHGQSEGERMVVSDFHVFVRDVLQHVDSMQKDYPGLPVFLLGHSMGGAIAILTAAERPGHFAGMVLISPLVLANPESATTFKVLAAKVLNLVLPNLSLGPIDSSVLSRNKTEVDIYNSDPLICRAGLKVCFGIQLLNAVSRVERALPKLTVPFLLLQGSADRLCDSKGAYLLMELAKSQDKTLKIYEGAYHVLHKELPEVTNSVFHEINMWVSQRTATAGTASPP
Sequence of human recombinant FAAH (O00519 whole entry): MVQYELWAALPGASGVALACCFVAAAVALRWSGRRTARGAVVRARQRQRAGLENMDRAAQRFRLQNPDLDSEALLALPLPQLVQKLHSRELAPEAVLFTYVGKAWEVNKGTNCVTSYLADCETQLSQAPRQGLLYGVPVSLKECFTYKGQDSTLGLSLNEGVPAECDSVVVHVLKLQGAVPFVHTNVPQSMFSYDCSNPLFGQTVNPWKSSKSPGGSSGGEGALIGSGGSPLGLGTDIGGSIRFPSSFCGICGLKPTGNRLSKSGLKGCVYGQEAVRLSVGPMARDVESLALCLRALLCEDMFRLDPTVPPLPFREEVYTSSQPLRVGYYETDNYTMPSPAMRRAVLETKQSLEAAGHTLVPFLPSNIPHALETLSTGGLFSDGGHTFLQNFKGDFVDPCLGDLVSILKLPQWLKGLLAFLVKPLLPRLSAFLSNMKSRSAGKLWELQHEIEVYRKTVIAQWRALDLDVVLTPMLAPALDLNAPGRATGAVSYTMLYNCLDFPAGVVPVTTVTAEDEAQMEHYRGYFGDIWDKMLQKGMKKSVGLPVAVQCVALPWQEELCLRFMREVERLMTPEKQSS

As a reminder, the IC50 is the concentration that inhibits the measured activity by half. Broadly, the solubility is the dissolved amount per volume that the medium holds. Read a low solubility as a poorly soluble substance. Regarding `NC(=O)c1cccc(-c2cccc(OC(=O)NC3CCCCC3)c2)c1` [URB597, reference compound], the IC50 at human recombinant MAGL is above 50000 nM. The same compound returned a solubility in data set [1] of 2.8 µM (≈ 0.948 µg/mL). Moreover, the half-life at 1 μM in data set [2] was 47 min. Also, the Cmax in data set [3] is around 200 ng/mL.
For orientation: Tmax means the time at which the peak concentration occurs. As for `COc1ccc(OC(=O)NC2CCCCCC2)cc1-c1cncc(-c2nnco2)c1` [Example 172, 3-(5-(1,3,4-oxadiazol-2-yl)pyridin-3-yl)-4-methoxyphenyl cycloheptylcarbamate], the IC50 was 112 nM on human recombinant FAAH (setting [5]), 112 nM at human recombinant FAAH (setting [6]) and above 10000 nM at human recombinant MAGL. Moreover, the concentration in solution in data set [1] (solubility) came to 16.2 µM (≈ 6.62 µg/mL). Also, in data set [2], the half-life at 1 μM was found to be 361 min. The “plasma stability and/or aqueous solubility compared to reference compound URB597” value in data set [2] is “improved plasma stability, improved aqueous solubility, or improved plasma stability and aqueous solubility”. Moreover, the “Cmax exposure relative to URB597” value in data set [4] is recorded as around 10 ×. The AUC in data set [4] (setting [7]) was 424 ng·h/mL; in data set [4] (setting [13]), 5260 ng·h/mL. Further, the clearance in data set [4] (setting [8]) turned out to be 40 mL/min/kg. For the same compound, the Vd in data set [4] (setting [8]) turned out to be 1.58 L/kg. Also, the half-life in data set [4] (setting [9]) was 0.8 h; in data set [4] (setting [16]) it was 1.25 h. Also, in data set [4], the “improvement in oral exposure maximums compared to URB597” value is around 250 ×. Moreover, the Kp at 0.5 h in data set [4] (setting [10]) and in data set [4] (setting [11]) was 0.15 each time. Besides, the Kp at 1 h in data set [4] (setting [10]) and in data set [4] (setting [11]) was 0.19 each time. Also, the Kp in data set [4] (male, Sprague Dawley, brain, rat, time not stated, read-out: Brain/Plasma ratio) is above 0.15. The Tmax in data set [4] (setting [12]) was determined as 30 min. The Cmax in data set [4] (setting [14]) was 5.91 µM; in data set [4] (setting [15]), 2250 ng/mL. Moreover, in data set [4] (rat (SD, male), IV 1.0 mg/kg), the “Co” value came to 1528 ng/mL. The “Co [uM]” value in data set [4] (rat (SD, male), IV 1.0 mg/kg) is “[4.02 uM]”. Also, the “AUC0-Y (ng h/mL), PO” value in data set [4] (rat, PO 10.0 mg/kg) turned out to be 5257 ng·h/mL. For the same compound, in data set [4] (setting [17]), the “F (%) oral bioavailability” value is listed as above 100%.
One may read the bioavailability as the share of a dose that reaches the circulation, judged against a reference dose that is usually intravenous. Consider `O=C(NC1CCCCC1)Oc1ccc(O)c(-c2cncc(-c3nnco3)c2)c1` [Example 158, 3-(5-(1,3,4-oxadiazol-2-yl)pyridin-3-yl)-4-hydroxyphenyl cyclohexylcarbamate], for which the IC50 on human recombinant FAAH (setting [5]) stood at 127 nM. Also, the IC50 at human recombinant FAAH (setting [6]) was 124 nM. At human recombinant MAGL, the IC50 is above 50000 nM. Besides, in data set [1], the solubility stood at 92.5 µM (≈ 35.2 µg/mL). Also, in data set [2], the half-life at 1 μM was 350 min; the “plasma stability and/or aqueous solubility compared to reference compound URB597” value was “improved plasma stability, improved aqueous solubility, or improved plasma stability and aqueous solubility”. In addition, in data set [4], the “Cmax exposure relative to URB597” value was around 10 × and the “improvement in oral exposure maximums compared to URB597” value was around 250 ×. Besides, in data set [4] (setting [7]), the AUC was found to be 1340 ng·h/mL. For the same compound, in data set [4] (setting [8]), the clearance worked out at 12 mL/min/kg and the Vd came to 0.62 L/kg. Moreover, the half-life in data set [4] (setting [9]) is 0.31 h. Moreover, in data set [4] (setting [11]), the Kp at 0.5 h was determined as 0.01 and the Kp at 1 h is 0.02. Further, the time of peak concentration (Tmax) in data set [4] (setting [12]) was 30 min. In data set [4] (setting [13]), the AUC stood at 7050 ng·h/mL. The Cmax in data set [4] (setting [14]) was 5.05 µM. In addition, the Cmax in data set [4] (setting [15]) is 1920 ng/mL. For the same compound, the half-life in data set [4] (setting [16]) was 2.85 h. Besides, the bioavailability in data set [4] (male, Sprague Dawley, rat, plasma, oral, 10 mg/kg, rat, PO 10.0 mg/kg vs IV 1.0 mg/kg, read-out: F (%) oral bioavailability) amounted to 53%. In data set [4] (rat (SD, male), IV 1.0 mg/kg), the “Co” value was 4829 ng/mL and the “Co [uM]” value was “[12.7 uM]”. Also, in data set [4] (rat, PO 10.0 mg/kg), the “AUC0-Y (ng h/mL), PO” value was determined as 7054 ng·h/mL and the “t1/2 (h), PO” value came to 2.85 h. The “F (%) oral bioavailability” value in data set [4] (setting [17]) is reported as above 50%.
